Results reported in patent US20240041977A1, “ANNEXIN A1 N-TERMINAL PEPTIDE FORMULATIONS AND METHODS” (ResoTher Pharma A/S, priority 2020, published 2024).
Ends that are not written are not given here.

Columns and labels:
Assay type in all cases: physicochemical
[1] = Visual appearance of solution
[2] = Solubility: concentration of AnxA1 in solution/supernatant by UV-VIS
Experimental: The concentration of AnxA1 was determined using UV-VIS spectroscopy using a Nanodrop 2000c from Thermo scientific and an extinction coefficient of A280^0.1%=1.64 ml mg^−1cm^−1.
Three samples of AnxA1 was prepared at pH 9 in Milli Q® water, 0.9% NaCl (154 mM) at concentrations 3.3, 1.6 and 0.8 mg/mL, respectively. pH was adjusted by addition of 0.1 M NaOH to each of the samples and the concentration determined after centrifugation using UV-VIS spectroscopy.
(§1) AnxA1 samples are dissolved in Milli Q® water or 5% mannitol in Milli Q® water to approximately 18 mg/mL and pH was adjusted using 1.0 M HCl and NaOH. After dissolution visual appearance was noted and a photograph was taken, see FIG. 6 and Table 4, and a sample was cleared by centrifugation and the concentration determined in the supernatant using UV-VIS spectroscopy.

Dissolution time = assay: Dissolution time
Experimental: The peptide was initially wetted with a small amount of solvent and left for 5 minutes and following added the full amount of solvent. The solution was swirled by hand and observation of final dissolution time noted.
1.6 or 3.2 mg AnxA1 was added to Milli Q® water at around neutral pH containing different salts (NaCl, CaCl2, ZnCl2 or HCl) according to table 2. Dissolution times was observed and the resulting solutions was analyzed using the ThT assay.

[3] = Visual appearance of solution; remark: listed apart in the source
Experimental: The remainder of the peptide suspension was diluted to an assumed concentration of 5 mg/mL and 4*1 mL samples were adjusted to pH 2, 4, 6 and 8, (see FIG. 2). All 4 vials continued to be opaque indicating limited solubility.
Approximately 16 mg/mL AnxA1 was added to milliQ® water. The resulting pH was 7.5. pH was adjusted to pH 10 in one sample using 0.1 M NaOH and to pH 2 using 0.1 M HCl in another sample, according to table 3. The appearance of the solution was noted. At pH≥7.4 the solution was clear. At pH≤7.1>2.6 solutions where unclear. At pH≤2.6 the solution was again clear. Data are summarized the Table 3, see also FIG. 5.
as §1
Isotonic samples containing 1.5-1.6 mg/mL AnxA1 and a tonicity provider (isotonicity modifier) was prepared around neutral pH according to the specification in table 5. […] The samples were subjected to the ThT assay previously described, where a higher lag-time was observed when using sucrose and mannitol as tonicity providers compared to using trehalose and glucose. The data presented in Table 5 is illustrated graphically in FIG. 7.

With “AMVSEFLKQAWFIENEEQEYVQTLKSSKGGPGSAVSPYPTFNPSSDV-NH2 [AnxA1]” the appearance ([1]; 20 mg AnxA1 per mL 0.9% NaCl, neutral pH, after over night at room temperature on rotation) was “opaque gel like substance”, the appearance ([1]; AnxA1 3.3, 1.6 and 0.8 mg/mL in Milli Q water, 0.9% NaCl (154 mM), at pH 6.0) was “opaque” and the appearance ([1]; AnxA1 3.3, 1.6 and 0.8 mg/mL in Milli Q water, 0.9% NaCl (154 mM), immediately below pH 6.0) was “precipitated”. For the same substance, the solubility thermodynamic ([2]; 0.9% NaCl (154 mM) in Milli Q water, saline or isotonic, 20 mg freeze-dried AnxA1 per mL 0.9% NaCl (154 mM) in Milli Q, neutral pH, over night at room temperature on rotation, spun down) was roughly 170 µg/mL, the “solubility (concentration A280 as a function of pH)” value ([2]; AnxA1 3.3, 1.6 and 0.8 mg/mL in MiliQ water, 0.9% NaCl (154 mM), below pH 6.0) was “very low” and the solubility ([2]; saline at neutral pH around 7.3) was “poorly soluble”. For the same substance, the dissolution (Dissolution time; 20 mg freeze-dried AnxA1 per mL 0.9% NaCl (154 mM) in Milli Q at neutral pH) was “not readily dissolved”, the “Dissolution time (Notes)” value (Dissolution time; AnxA1 1.5 mg/mL, NaCl 0.9%, ZnCl2 0.77 mM, pH N/A, after more than 2 hours) was “not fully solubilized” and the “Dissolution time (Notes)” value (Dissolution time; AnxA1 1.6 mg/mL in Milli Q water, no salt, pH 7.5) was 5 min. For the same substance, the “Dissolution time (Notes)” value (Dissolution time; AnxA1 1.6 mg/mL in Milli Q water, no salt, pH 7.6) was 5 min, the “Dissolution time (Notes)” value (Dissolution time; AnxA1 1.6 mg/mL, CaCl2 0.77 mM, pH 7.2) was 5 min and the “Dissolution time (Notes)” value (Dissolution time; AnxA1 1.6 mg/mL, CaCl2 0.77 mM, pH 7.4) was 10 min. The “Dissolution time (Notes)” value (Dissolution time; AnxA1 1.6 mg/mL, NaCl 0.9%, CaCl2 0.77 mM, pH 7.1) was 35 min, the “Dissolution time (Notes)” value (Dissolution time; AnxA1 3.2 mg/mL, NaCl 0.9%, pH 7.2) was 45 min and the dissolution time (Dissolution time; Milli Q water around neutral pH, no addition of salt) was “less than 5 minutes”. The Visual appearance ([3]; AnxA1 1.5 mg/mL, glucose 5 wt.%, pH 7.1) was “Clear”, the Visual appearance ([3]; AnxA1 1.6 mg/mL, mannitol 5 wt.%, pH 6.7) was “Clear” and the Visual appearance ([3]; AnxA1 1.6 mg/mL, sucrose 10 wt.%, pH 7.2) was “Clear”. For the same substance, the Visual appearance ([3]; AnxA1 1.6 mg/mL, trehalose 10 wt.%, pH 7.2) was “Clear”, the Visual appearance ([3]; all isotonic samples, 1.5-1.6 mg/mL AnxA1 and a tonicity provider, around neutral pH) was “clear solutions” and the “Description (visual appearance)” value ([3]; approximately 16 mg/mL AnxA1 in milliQ water, pH 2.6-2.0) was “Clear solution”. For the same substance, the “Description (visual appearance)” value ([3]; approximately 16 mg/mL AnxA1 in milliQ water, pH 3.8-3.1) was “Starts clearing up”, the “Description (visual appearance)” value ([3]; approximately 16 mg/mL AnxA1 in milliQ water, pH 6.1-4.2) was “Gel-like” and the “Description (visual appearance)” value ([3]; approximately 16 mg/mL AnxA1 in milliQ water, pH 6.8-6.3) was “Milky, turbid”. The “Description (visual appearance)” value ([3]; approximately 16 mg/mL AnxA1 in milliQ water, pH 7.1) was “Fluffy particles”, the “Description (visual appearance)” value ([3]; approximately 16 mg/mL AnxA1 in milliQ water, pH ≥7.4) was “clear solution” and the “appearance of the solution” value ([3]; approximately 16 mg/mL AnxA1 in milliQ water, pH≤7.1>2.6) was “unclear”. For the same substance, the Visual appearance ([3]; approximately 18 mg/mL AnxA1, pH 2, 4 and 6, with and without 5% mannitol in Milli Q water) was “unclear and or viscous solution”, the Visual appearance ([3]; approximately 18 mg/mL AnxA1, pH 8 and 10, with and without 5% mannitol in Milli Q water) was “clear solution” and the appearance ([3]; assumed 5 mg/mL AnxA1 in Milli Q water, 0.9% NaCl (154 mM), adjusted to pH 2, 4, 6 and 8) was “opaque”.
